Experimental findings from the NIST ThermoML archive (doi:10.1016/j.jct.2014.09.009) are described below.

As usually defined, the mass density is the mass of a sample divided by its volume. The term refractive index denotes the speed of light in vacuum divided by its phase velocity in the sample.

The conditions of data set [1]: 298.15 K; 101.33 kPa; Liquid; Vibrating tube method.
Data set [2] can be described thus: refractive index (Na D-line) (dimensionless). To be noted: 298.15 K; 101.33 kPa; Liquid; Standard Abbe refractometry.

Structures are written as SMILES. Numbers after ± are expanded uncertainties.

Turning to `CCn1cc[n+](C)c1.COS(=O)(=O)[O-]` [1-ethyl-3-methylimidazolium methylsulfate], in data set [1], the mass density is 1277.4 ± 2.6 kg/m3. Also, the refractive index in data set [2] is recorded as 1.479 ± 0.0005.

For `CCCCCCCCCCCC` [dodecane], in data set [1], the mass density is recorded as 745.2 ± 2.1 kg/m3. The refractive index in data set [2] turned out to be 1.41992 ± 0.0004.

With `COS(=O)(=O)[O-].Cn1cc[n+](C)c1` [1,3-dimethylimidazolium methylsulfate], the mass density in data set [1] was 1327.3 ± 3.8 kg/m3. The refractive index in data set [2] was 1.48276 ± 0.00069.

For `CC(C)O` [propan-2-ol], the mass density in data set [1] is 780.9 ± 2.1 kg/m3. For the same compound, in data set [2], the refractive index is listed as 1.37499 ± 0.00035.

As for `CCO` [ethanol], the mass density in data set [1] amounted to 785.1 ± 2.1 kg/m3. Besides, in data set [2], the refractive index is 1.35932 ± 0.00035.

Turning to `CCCCn1cc[n+](C)c1.COS(=O)(=O)[O-]` [1-butyl-3-methylimidazolium methyl sulfate], the mass density in data set [1] is on record as 1212.3 ± 2.5 kg/m3. Besides, in data set [2], the refractive index was 1.47948 ± 0.00053.

Regarding `CCOC(C)=O` [ethyl acetate], the mass density in data set [1] amounted to 894.5 ± 2.1 kg/m3. Also, the refractive index in data set [2] was found to be 1.36975 ± 0.00035.
